According to PubChem BioAssay AID248 (DTP/NCI, 2004):
“And” between values parts separate entries of the source, which are not always exact repeats. Equal values may be shown once. Toxic doses and inconclusive results are not listed. Rule as the data show it: active = T/C of 150% or more; inactive = T/C below 125%.

Test system: L1210 leukemia ip in BDF1 mice, survival T/C
Assay: NCI In Vivo Anticancer Drug Screen. Data for tumor model L1210 Leukemia (intraperitoneal) in B6D2F1 (BDF1) mice
Conditions: endpoint: mean survival time, higher = longer survival
Method in brief: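 Tumor cells were implanted, animals were treated, and survival was followed. The result divides the treated measurement by the vehicle-control measurement.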

[1] = dose: 100.0 mg/kg/injection, schedule: Q01DX009 (ip), vehicle: Klucel (hydroxypropylcellulose) (HPC)
[2] = dose: 100.0 mg/kg/injection, schedule: Q04DX002 (ip), vehicle: Klucel (hydroxypropylcellulose) (HPC)
[3] = dose: 200.0 mg/kg/injection, schedule: Q01DX009 (ip), vehicle: Klucel (hydroxypropylcellulose) (HPC)
[4] = dose: 200.0 mg/kg/injection, schedule: Q04DX002 (ip), vehicle: Klucel (hydroxypropylcellulose) (HPC)
[5] = dose: 400.0 mg/kg/injection, schedule: Q01DX009 (ip), vehicle: Klucel (hydroxypropylcellulose) (HPC)
[6] = dose: 400.0 mg/kg/injection, schedule: Q04DX002 (ip), vehicle: Klucel (hydroxypropylcellulose) (HPC)
[7] = dose: 100.0 mg/kg/injection, schedule: Q04DX003 (ip), vehicle: saline with Tween-80
[8] = dose: 200.0 mg/kg/injection, schedule: Q04DX003 (ip), vehicle: saline with Tween-80
[9] = dose: 100.0 mg/kg/injection, schedule: Q01DX001 (ip), vehicle: carboxymethylcellulose (CMC)
[10] = dose: 200.0 mg/kg/injection, schedule: Q01DX001 (ip), vehicle: carboxymethylcellulose (CMC)
[11] = dose: 400.0 mg/kg/injection, schedule: Q01DX001 (ip), vehicle: carboxymethylcellulose (CMC)
[12] = dose: 100.0 mg/kg/injection, schedule: Q01DX001 (ip), vehicle: Klucel (hydroxypropylcellulose) (HPC)
[13] = dose: 100.0 mg/kg/injection, schedule: Q04DX003 (ip), vehicle: Klucel (hydroxypropylcellulose) (HPC)
[14] = dose: 200.0 mg/kg/injection, schedule: Q01DX001 (ip), vehicle: Klucel (hydroxypropylcellulose) (HPC)
[15] = dose: 200.0 mg/kg/injection, schedule: Q04DX003 (ip), vehicle: Klucel (hydroxypropylcellulose) (HPC)
[16] = dose: 400.0 mg/kg/injection, schedule: Q04DX003 (ip), vehicle: Klucel (hydroxypropylcellulose) (HPC)
[17] = dose: 50.0 mg/kg/injection, schedule: Q01DX009 (ip), vehicle: saline with Tween-80
[18] = dose: 100.0 mg/kg/injection, schedule: Q01DX009 (ip), vehicle: saline with Tween-80

Measured: T/C

CCN(CC)C(=Nc1ccc(NC(=O)c2ccc(C(=O)Nc3ccc(N=C(c4ccccc4)N(CC)CC)cc3)cc2)cc1)c1ccccc1
inactive: dose: 15.0 mg/kg/injection, schedule: Q01DX Z (ip), vehicle: carboxymethylcellulose (CMC) 92 % of control | dose: 30.0 mg/kg/injection, schedule: Q01DX Z (ip), vehicle: carboxymethylcellulose (CMC) 93 % of control | dose: 60.0 mg/kg/injection, schedule: Q01DX Z (ip), vehicle: carboxymethylcellulose (CMC) 98 % of control | dose: 120.0 mg/kg/injection, schedule: Q01DX Z (ip), vehicle: carboxymethylcellulose (CMC) 114 % of control

O=C(Nc1cccc(C(F)(F)F)c1)Nc1nccs1
inactive: [1] 100 % of control | [2] 94 % of control | [3] 115 % of control | [4] 108 % of control | [5] 92 % of control | [6] 89 % of control

CC1(C)CC(N=Cc2ccccc2O)CC(C)(C)N1O.CC1(C)CC(N=Cc2ccccc2O)CC(C)(C)N1O.[Co]
inactive: [7] 89 % of control | [8] 92 % of control

O=C(COc1cccc(Cl)c1)Nc1cccc(NC(=O)c2cccc(S(=O)(=O)F)c2)c1
inactive: [9] 88 % of control | [10] 88 % of control | [11] 97 % of control

CC(O)(CCc1ccccc1)CC(O)(C(F)(F)F)C(F)(F)F (configuration not stated)
inactive: [7] 101 % of control | [8] 94 % of control | dose: 400.0 mg/kg/injection, schedule: Q04DX003 (ip), vehicle: saline with Tween-80 95 % of control

CC1CC(C#N)Nc2ccccc2N1 (configuration not stated)
inactive: dose: 50.0 mg/kg/injection, schedule: Q01DX001 (ip), vehicle: Klucel (hydroxypropylcellulose) (HPC) 109 % of control | dose: 50.0 mg/kg/injection, schedule: Q01DX009 (ip), vehicle: Klucel (hydroxypropylcellulose) (HPC) 96 % of control | dose: 50.0 mg/kg/injection, schedule: Q04DX003 (ip), vehicle: Klucel (hydroxypropylcellulose) (HPC) 98 % of control | [12] 106 % of control | [1] 93 % of control and 121 % of control | [13] 100 % of control and 104 % of control | [14] 104 % of control | [3] 86 % of control | [15] 96 % of control and 90 % of control | [16] 101 % of control

CCCCC(CC)COP(=O)(CC(CC)CCCC)OCC(CC)CCCC (configuration not stated)
inactive: dose: 50.0 mg/kg/injection, schedule: Q01DX009 (ip), vehicle: saline 111 % of control | dose: 100.0 mg/kg/injection, schedule: Q01DX009 (ip), vehicle: saline 107 % of control

CNc1ccccc1C(N)=O
inactive: [1] 106 % of control | [13] 105 % of control | [3] 98 % of control | [15] 102 % of control | [5] 101 % of control | [16] 96 % of control

O=[N+]([O-])c1ccc(C(F)(F)F)cc1
inactive: dose: 50.0 mg/kg/injection, schedule: Q01DX009 (ip), vehicle: other 104 % of control | dose: 100.0 mg/kg/injection, schedule: Q01DX009 (ip), vehicle: other 101 % of control

CC(=O)OC1CCC2(C)C(=CC=C3C2CCC2(C)C3CC(OC(C)=O)C2C(C)C2CCC(C)CN2C(C)=O)C1 (configuration not stated)
inactive: [17] 91 % of control | [18] 91 % of control

Cc1ccc(-n2ccnc2)c(N=Cc2ccc(N(CCCl)CCCl)cc2Cl)c1
inactive: [2] 102 % of control | [4] 102 % of control | [6] 102 % of control

NNC(=O)c1ccccc1O
inactive: dose: 50.0 mg/kg/injection, schedule: Q01DX001 (ip), vehicle: other 105 % of control | [17] 90 % of control | dose: 100.0 mg/kg/injection, schedule: Q01DX001 (ip), vehicle: other 100 % of control | [18] 97 % of control | dose: 200.0 mg/kg/injection, schedule: Q01DX001 (ip), vehicle: other 97 % of control | dose: 200.0 mg/kg/injection, schedule: Q01DX009 (ip), vehicle: saline with Tween-80 102 % of control

CCC1CC2CC(c3cc4c(cc3OC)N(C)C3C(O)(C(=O)OC)C(OC(C)=O)C5(CC)C=CCN6CCC43C65)c3[nH]c4ccccc4c3CCN(C1)C2 (configuration not stated)
inactive: dose: 0.25 mg/kg/injection, schedule: Q01DX009 (ip), vehicle: Klucel (hydroxypropylcellulose) (HPC) 100 % of control | dose: 0.5 mg/kg/injection, schedule: Q01DX009 (ip), vehicle: Klucel (hydroxypropylcellulose) (HPC) 105 % of control | dose: 1.0 mg/kg/injection, schedule: Q01DX009 (ip), vehicle: Klucel (hydroxypropylcellulose) (HPC) 101 % of control | dose: 2.0 mg/kg/injection, schedule: Q01DX009 (ip), vehicle: Klucel (hydroxypropylcellulose) (HPC) 97 % of control | dose: 4.0 mg/kg/injection, schedule: Q01DX009 (ip), vehicle: Klucel (hydroxypropylcellulose) (HPC) 110 % of control | dose: 8.0 mg/kg/injection, schedule: Q01DX009 (ip), vehicle: Klucel (hydroxypropylcellulose) (HPC) 103 % of control

C=CCc1ccc(OC(=O)NC(C)C)c(OC)c1
inactive: [12] 89 % of control | [1] 97 % of control and 88 % of control | [2] 98 % of control and 100 % of control | [13] 93 % of control | [14] 101 % of control | [3] 111 % of control and 91 % of control | [4] 98 % of control and 112 % of control | [15] 97 % of control | dose: 400.0 mg/kg/injection, schedule: Q01DX001 (ip), vehicle: Klucel (hydroxypropylcellulose) (HPC) 100 % of control | [5] 88 % of control | [6] 112 % of control and 119 % of control | [16] 101 % of control

Cc1cc(C)cc(OCC2C(COC(=O)c3cccc(Cl)c3)c3ccccc3N2C)c1 (configuration not stated)
inactive: [1] 89 % of control | [3] 94 % of control

Cc1cccc(NC(=O)NCCO)c1
inactive: [9] 103 % of control | [10] 109 % of control | [11] 97 % of control

CCCCCCCC(C)NCCOC(=O)c1ccc(N)cc1 (configuration not stated)
inactive: dose: 75.0 mg/kg/injection, schedule: Q01DX001 (ip), vehicle: other 117 % of control | dose: 150.0 mg/kg/injection, schedule: Q01DX001 (ip), vehicle: other 101 % of control

O=C(Cc1ccccc1)c1ccc(O)cc1O
inactive: dose: 50.0 mg/kg/injection, schedule: Q01DX001 (ip), vehicle: saline 104 % of control | dose: 100.0 mg/kg/injection, schedule: Q01DX001 (ip), vehicle: saline 104 % of control | dose: 100.0 mg/kg/injection, schedule: Q04DX003 (ip), vehicle: gum acacia 113 % of control | dose: 200.0 mg/kg/injection, schedule: Q01DX001 (ip), vehicle: saline 102 % of control | dose: 200.0 mg/kg/injection, schedule: Q04DX003 (ip), vehicle: gum acacia 98 % of control | dose: 400.0 mg/kg/injection, schedule: Q01DX001 (ip), vehicle: saline 102 % of control | dose: 400.0 mg/kg/injection, schedule: Q04DX003 (ip), vehicle: gum acacia 101 % of control

CC(=O)CC(=O)Nc1cccc(Cl)c1
inactive: dose: 15.0 mg/kg/injection, schedule: Q01DX001 (ip), vehicle: carboxymethylcellulose (CMC) 108 % of control | dose: 30.0 mg/kg/injection, schedule: Q01DX001 (ip), vehicle: carboxymethylcellulose (CMC) 108 % of control

CCCCCCCCCCSCCSCCSCCCCCCCCCC
inactive: [13] 94 % of control

CCCCNc1c(C(=O)OCC)c[nH]c(=O)c1C(C)=O
inactive: [13] 97 % of control | [15] 97 % of control | [16] 87 % of control
